Measured values from PMC6718988, “Bioactivity and Bactericidal Mechanism of Histidine-Rich β-Hairpin Peptide Against Gram-Negative Bacteria” (International Journal of Molecular Sciences, 2019).
In brackets after ≈: the same amount, converted by molar mass. Where a SMILES comes first, the peptide text is derived from it. Bridges are numbered along the chain shown (N, C = ends). [ ]: non-standard residue; d: D form. The star is where a group is joined. X1 = CC[C@H](C)CCCCC(=O)*; Dab = NCC[C@H](N)C(=O)O

Tests used:
E. coli ATCC25922 = assay: microbe, parasite or virus in culture
Method: (§1) The minimum inhibitory concentration (MIC) was measured using a broth microdilution method to determine the in vitro antimicrobial activity of the peptides. Bacteria were inoculated into MHB and incubated overnight at 37 °C until the bacteria were in log phase growth. Next, we corrected the bacterial concentration to approximately 1 × 10^5 CFU/mL using MHB. The peptides were added to 96-well plates containing 0.01% acetic acid and 0.2% bovine serum albumin at final concentrations ranging from 0.25 to 128 μM. After incubation at 37 °C for 24 h, the absorbance was measured at 492 nm using a microplate reader (Tecan GENios F129004, Tecan, Austria). Broth containing microbes and […] were used as positive and negative controls, respectively. The lowest peptide concentration with no increase in absorbance compared to that of the negative control was defined as the MIC. The experiments were independently performed three times.

E. coli K88 = assay: microbe, parasite or virus in culture
Method: as §1

E. coli K99 = assay: microbe, parasite or virus in culture
Method: as §1

E. coli UB1005 = assay: microbe, parasite or virus in culture
Method: as §1

P. aeruginosa ATCC27853 = assay: microbe, parasite or virus in culture
Method: as §1

S. aureus ATCC29213 = assay: microbe, parasite or virus in culture
Method: as §1

S. epidermidis ATCC12228 = assay: microbe, parasite or virus in culture
Method: as §1

S. pullorum C7913 = assay: microbe, parasite or virus in culture; conditions: 24 h
Method: as §1

[1] = system: methicillin-resistant S. aureus ATCC43300; assay: microbe, parasite or virus in culture
Method: as §1

Gram-negative bacteria = assay: MICs against Gram-negative strains (geometric mean, range); assay type: cell-based; conditions: for geometric mean MIC: read-out: MBC (GM), geometric mean of MICs, Gram (−)
Method: as §1

[2] = system: Gram-positive and Gram-negative bacteria; conditions: all strains; 256 μM used where no activity at 128 μM
Method: as §1

Gram-positive bacteria = conditions: Gram-positive strains; 256 μM used where no activity at 128 μM
Method: as §1

[3] = Escherichia coli, ATCC25922, 24 h
[4] = Pseudomonas aeruginosa, ATCC27853, 24 h
[5] = Staphylococcus aureus, ATCC29213, 24 h
[6] = Staphylococcus epidermidis, ATCC12228, 24 h
[7] = Staphylococcus aureus, ATCC43300, 24 h

Compound: CC(C)(O/N=C(\C(=O)N[C@@H]1C(=O)N2C(C(=O)[O-])=C(C[n+]3ccccc3)CS[C@H]12)c1csc(N)n1)C(=O)O [Ceftazidime]
- MIC (E. coli ATCC25922; [3]): 2 µM (≈ 1.09 µg/mL)
- MIC (E. coli K88; Escherichia coli, K88, 24 h): 1 µM (≈ 0.547 µg/mL)
- MIC (E. coli K99; Escherichia coli, K99, 24 h): 0.5 µM (≈ 0.273 µg/mL)
- MIC (E. coli UB1005; Escherichia coli, UB1005, 24 h): 1 µM (≈ 0.547 µg/mL)
- MIC (P. aeruginosa ATCC27853; [4]): 2 µM (≈ 1.09 µg/mL)
- MIC (S. aureus ATCC29213; [5]): 16 µM (≈ 8.75 µg/mL)
- MIC (S. epidermidis ATCC12228; [6]): 16 µM (≈ 8.75 µg/mL)
- MIC (S. pullorum C7913; Salmonella enterica, PULLORUM): 1 µM (≈ 0.547 µg/mL)
- MIC [1, 7]: 16 µM (≈ 8.75 µg/mL)
- geometric mean MIC (Gram-negative bacteria): 1.12 µM

Compound: CNC(C)C1CCC(N)C(OC2C(N)CC(N)C(OC3OCC(C)(O)C(NC)C3O)C2O)O1 (stereo not drawn) [Gentamicin]
- MIC (E. coli ATCC25922; [3]): 1 µM (≈ 0.478 µg/mL)
- MIC (E. coli K88; Escherichia coli, K88, 24 h): 1 µM (≈ 0.478 µg/mL)
- MIC (E. coli K99; Escherichia coli, K99, 24 h): 0.5 µM (≈ 0.239 µg/mL)
- MIC (E. coli UB1005; Escherichia coli, UB1005, 24 h): 0.5 µM (≈ 0.239 µg/mL)
- MIC (P. aeruginosa ATCC27853; [4]): 1 µM (≈ 0.478 µg/mL)
- MIC (S. aureus ATCC29213; [5]): 1 µM (≈ 0.478 µg/mL)
- MIC (S. epidermidis ATCC12228; [6]): 1 µM (≈ 0.478 µg/mL)
- MIC (S. pullorum C7913; Salmonella enterica, PULLORUM): 1 µM (≈ 0.478 µg/mL)
- MIC [1, 7]: 8 µM (≈ 3.82 µg/mL)
- geometric mean MIC (Gram-negative bacteria): 0.79 µM

Compound: CC[C@H](C)CCCCC(=O)N[C@@H](CCN)C(=O)N[C@H](C(=O)N[C@@H](CCN)C(=O)N[C@H]1CCNC(=O)[C@H]([C@@H](C)O)NC(=O)[C@H](CCN)NC(=O)[C@H](CCN)NC(=O)[C@H](CC(C)C)NC(=O)[C@@H](Cc2ccccc2)NC(=O)[C@H](CCN)NC1=O)[C@@H](C)O [Polymyxin B, polymyxin B] (X1-[Dab]T[Dab][Dab][Dab][dF]L[Dab][Dab]T; lactam 4-C (inferred); N-terminus assumed)
- MIC (E. coli ATCC25922; E. coli 25922, MHB, about 1 × 10^5 CFU/mL, 37 °C, 24 h, 0.25-128 μM, three independent experiments): 2 µM (≈ 2.41 µg/mL)
- MIC (E. coli K88; E. coli K88, MHB, about 1 × 10^5 CFU/mL, 37 °C, 24 h, three independent experiments): 0.5 µM (≈ 0.602 µg/mL)
- MIC (E. coli K99; E. coli K99, MHB, about 1 × 10^5 CFU/mL, 37 °C, 24 h, three independent experiments): 1 µM (≈ 1.2 µg/mL)
- MIC (E. coli UB1005; E. coli UB1005, MHB, about 1 × 10^5 CFU/mL, 37 °C, 24 h, three independent experiments): 1 µM (≈ 1.2 µg/mL)
- MIC (P. aeruginosa ATCC27853; P. auruginosa 27853, MHB, about 1 × 10^5 CFU/mL, 37 °C, 24 h, three independent experiments): 2 µM (≈ 2.41 µg/mL)
- MIC (S. aureus ATCC29213; S.aureus 29213, MHB, about 1 × 10^5 CFU/mL, 37 °C, 24 h, three independent experiments): 64 µM (≈ 77 µg/mL)
- MIC (S. epidermidis ATCC12228; S.epidermidis 12228, MHB, about 1 × 10^5 CFU/mL, 37 °C, 24 h, three independent experiments): 32 µM (≈ 38.5 µg/mL)
- MIC (S. pullorum C7913; S.pullorum C7913, MHB, about 1 × 10^5 CFU/mL, 37 °C, three independent experiments): 1 µM (≈ 1.2 µg/mL)
- MIC ([1]; S.aureus 43300 (methicillin-resistant), MHB, about 1 × 10^5 CFU/mL, 37 °C, 24 h, three independent experiments): 64 µM (≈ 77 µg/mL)
- MBC (GM), geometric mean of MICs, Gram (−) (Gram-negative bacteria; Gram-negative strains, 256 μM used where no activity at 128 μM): 1.12 µM
- MBC (GM), geometric mean of MICs, Gram (+,−) [2]: 4 µM
- MBC (GM), geometric mean of MICs, Gram (+) (Gram-positive bacteria): 50.8 µM

Compound: CN[C@H](CC(C)C)C(=O)N[C@H]1C(=O)N[C@@H](CC(N)=O)C(=O)N[C@H]2C(=O)N[C@H]3C(=O)N[C@H](C(=O)N[C@H](C(=O)O)c4cc(O)cc(O)c4-c4cc3ccc4O)[C@H](O)c3ccc(c(Cl)c3)Oc3cc2cc(c3O[C@@H]2O[C@H](CO)[C@@H](O)[C@H](O)[C@H]2O[C@H]2C[C@](C)(N)[C@H](O)[C@H](C)O2)Oc2ccc(cc2Cl)[C@H]1O [Vancomycin]
- MIC (E. coli ATCC25922; [3]): 8 µM (≈ 11.6 µg/mL)
- MIC (E. coli K88; Escherichia coli, K88, 24 h): 2 µM (≈ 2.9 µg/mL)
- MIC (E. coli K99; Escherichia coli, K99, 24 h): 4 µM (≈ 5.8 µg/mL)
- MIC (E. coli UB1005; Escherichia coli, UB1005, 24 h): 16 µM (≈ 23.2 µg/mL)
- MIC (P. aeruginosa ATCC27853; [4]): > 128 µM
- MIC (S. aureus ATCC29213; [5]): 0.5 µM (≈ 0.725 µg/mL)
- MIC (S. epidermidis ATCC12228; [6]): 0.5 µM (≈ 0.725 µg/mL)
- MIC (S. pullorum C7913; Salmonella enterica, PULLORUM): 8 µM (≈ 11.6 µg/mL)
- MIC [1, 7]: 0.5 µM (≈ 0.725 µg/mL)
- geometric mean MIC (Gram-negative bacteria): 11.3 µM
